Experimental data: patent US20100173873A1, “TREATMENT OF METASTASIZED TUMORS” (Novartis Vaccines and Diagnostics, Inc., priority 2005, published 2010)

System: PC-3M-luc tumor cells
Assay: PC-3M-luc bone metastatic prostate model
Assay type: in vivo, nude mice
Conditions: 15 mg/kg i.p. 3 times per week
Method: Cell lines. Metastatic human prostate cell line PC-3M expressing null p53, del PTEN, VEGFR, FGFR and stably transfected with a construct of luciferase were obtained under a licensing agreement with Xenogen.
In vivo efficacy studies. […]. Animals received sterile rodent chow and water ad libitum and were housed in sterile filter-top cages with 12 hour light/dark cycles. All experiments were conducted under the guidelines of the Association for Assessment and Accreditation of Laboratory Animal Care International. PC-3M luc bone metastatic model. Human prostate cancer cell line PC-3M-luc cells (1.5×10^6 cells) stably transfected with a construct of luciferase were injected via intracardiac injections. Bioluminescent imaging (Xenogen's IVIS® imaging system) was used to non-invasively monitor the in vivo growth and metastasis of PC-3M-luc tumors after cell inoculation. Nearly all PC-3M-luc tumor cell-injected animals developed prostate lesions, which were mainly localized in the femur, and mandibles. […]. Mice were monitored daily and were euthanized when moribund.
Immunohistochemistry. Bone (femurs, mandible) samples were decalcified (Protocol™, Fisher Diagnostics, Middletown, Va.). Paraffin blocks were sectioned to […] thickness and placed on positively charged glass slides. Tissues were stained with hematoxylin and eosin for general tissue morphology and identification of PC-3M cells in bone.
Nude mice were inoculated with PC-3M-Luc cells intracardiacally with 1.5×10^6 cells. […]. The PC-3M-luc cell lines were purchased from Xenogen and the mice were imaged using Xenogen's IVIS® imaging system.

With CC(=O)O[C@H]1C(=O)[C@@]2(C)[C@H]([C@H](OC(=O)c3ccccc3)[C@]3(O)C[C@H](OC(=O)[C@H](O)[C@@H](NC(=O)c4ccccc4)c4ccccc4)C(C)=C1C3(C)C)[C@]1(OC(C)=O)CO[C@@H]1C[C@@H]2O [taxol, reference compound] the “Treatment efficacy vs. vehicle” value was “No difference in treatment efficacy”.
